Source: patent US6699477B2, “EBV CTL epitopes” (The Council of the Queensland Institute of Medical Research, priority 1996, dated 2004)
Like-named read-outs stand apart in the source and are kept apart here.

Experiments:
EBV [1] = settings: Table 4; cited from earlier work
HLA [2] = settings: Table 4; cited from earlier work
EBV [3] = assay: EBV type of CTL epitopes of the invention (Table 3); type: cell-based, Epstein-Barr virus
HLA [4] = settings: Table 3
CTL culture B5 = assay: Identification of specific peptide target, overlapping peptides on autologous PHA blasts; type: cell-based, human; settings: peptides preincubated with autologous PHA blasts
Experimental: (§1) Limiting dilution cultures were established by distributing PBL from the fourth bleed in 24 replicates at 2×10^4 cells per well in 96-well round-bottomed microtitre plates. Doubling dilutions were made to a final concentration of 1.6×10^2 per well. Approximately 1×10^4 γ-irradiated (8000 rads) autologous type B (EW-Ag-876) LCLs were added to each well as both feeder and stimulator cells to a total volume of 100 μl. Cultures were fed on days 4 and 7 with 50 μl of T cell growth medium and assayed on day 10 or later. The plates were subcultured and maintained in T cell growth medium and stimulated with γ-irradiated EW-Ag-876 LCLs. Initial assays were against type A and type B LCLs and subsequently against peptide-coated PHA-blasts or LCLs. Precursor frequencies were determined by a modification of the method of maximum likelihood estimation (11). Assessment of peptide specific activity. For determination of the antigenic specificity at the peptide level, a set of 20-mer overlapping peptides of EBNA-6B (residues 100-1069 (46)) was prepared using a kit and software distributed by Chiron Mimotopes (Chiron Corporation, Sydney, Australia). Nine-mer and 10-mer overlapping peptides with unblocked C and N termini were manufactured by Chiron Mimotopes. Labelled target cells were preincubated with overlapping peptides in the 96-well trays for 30-60 minutes before adding effectors. […]

B-type epitope CTL = assay: HLA-restriction CTL assay of type B-specific epitope, cell lines with or without specific peptide; type: cell-based, human; settings: QNGALAINTF specific CTLs, peptide-incubated targets of known HLA specificity
Experimental: as §1

T cell precursors = assay: Limiting dilution cultures, epitope specific precursor frequency; settings: PBL of donor stimulated by autologous type B cells; assayed 12 weeks later

TSLYNLRRGTALA
EBV Type (EBV [1]): Type 1 & 2
HLA Rest. (HLA [2]): HLA DR1

CLGGLLTMV
EBV Type (EBV [1]): Type 1 & 2
HLA Rest. (HLA [2]): HLA A2

EENLLDFVRF
EBV Type (EBV [1]): Type 1 & 2

HLAAQGMAY
EBV Type (EBV [1]): Type 1

VFSDGRVAC
EBV Type (EBV [3]): Type 1

VSSDGRVVC
EBV Type (EBV [3]): Type 1
HLA restriction (HLA [4]): HLA A29

VEITPYKPTW
EBV Type (EBV [1]): Type 1

DTPLIPLTIF
EBV Type (EBV [1]): Type 1

TYSAGIVQI
EBV Type (EBV [3]): Type 1

FLRGRAYGL
EBV Type (EBV [1]): Type 1
HLA Rest. (HLA [2]): HLA B8

KEHVIQNAF
EBV Type (EBV [1]): Type 1

QPRAPIRPI
EBV Type (EBV [1]): Type 1 & 2
HLA Rest. (HLA [2]): HLA B7

QNAARTLNTF [reference compound]
Recognition by type B specific culture B5 (CTL culture B5): nonreactive

VPAPAGPIV
EBV Type (EBV [3]): Type 1

DEPASTEPVHDQLL
EBV Type (EBV [1]): Type 1

AVLLHEESM
EBV Type (EBV [1]): Type 1

VSSDGRVPC
EBV Type (EBV [3]): Type 1

VSSEGRVAC
EBV Type (EBV [3]): Type 1

TVFYNIPPMPL
EBV Type (EBV [1]): Type 1
HLA Rest. (HLA [2]): HLA DQ2

QVKWRMTTL
EBV Type (EBV [3]): Type 2

VSSDGQVAC
EBV Type (EBV [3]): Type 1

SVRDRLARL
EBV Type (EBV [1]): Type 1 & 2
HLA Rest. (HLA [2]): HLA A2

RPPIFIRRL
EBV Type (EBV [1]): Type 1
HLA Rest. (HLA [2]): HLA B7

RYSIFFDY
EBV Type (EBV [1]): Type 1

VEITPYEPTG
EBV Type (EBV [3]): Type 1

VPAPPVGPIV
EBV Type (EBV [3]): Type 1

LPGPQVTAVLLHEES
EBV Type (EBV [1]): Type 1

VELTPYKPTW
EBV Type (EBV [3]): Type 1

RRRWRRLTV
EBV Type (EBV [1]): Type 1

VSSDGRVAC
EBV Type (EBV [3]): Type 1

QNGALAINTF
HLA restriction (B-type epitope CTL): B62 (B15)-restricted
Recognition by type B specific culture B5 (CTL culture B5): minimal epitope
EBV Type (EBV [3]): Type 2
Frequency (epitope specific T cell precursors) (T cell precursors): 1/16395

VEITPYEPTW
EBV Type (EBV [3]): Type 1

RLRAEAGVK
EBV Type (EBV [1]): Type 1
HLA Rest. (HLA [2]): HLA A3

RRIYDLIKL
EBV Type (EBV [3]): Type 1

NPTQAPVIQLVHAVY
EBV Type (EBV [1]): Type 1

VSSDGLVAC
EBV Type (EBV [3]): Type 1

VSFIEFVGW
EBV Type (EBV [1]): Type 1
